Measurements: the supplement of paper PMC10307832

How the values were obtained:
Assay in all cases: relative viability (nuclei count vs DMSO), 5 days (fraction); higher = more cells survive
PC-14 = system: PC-14
Outline: (§1)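 The day after seeding in 1536-well plates, lung cancer cell lines were treated by pin tool with a single drug, or with a fixed anchor-drug dose together with five library-drug doses (not always all listed) in √10 steps. After 5 days, a combined fix-and-stain solution (final 0.05% Triton X-100, 1% formaldehyde, 1 ug/ml Hoechst) was added. Nuclei counted on 4× images gave relative viability as treated counts over vehicle counts, reported as the median of duplicate plates.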

IA-LM = system: IA-LM
Outline: as §1

NCI-H1299 = system: NCI-H1299
Outline: as §1

Calu-6 = system: Calu-6
Outline: as §1

NCI-H596 = system: NCI-H596
Outline: as §1

NCI-H1666 = system: NCI-H1666
Outline: as §1

NCI-H661 = system: NCI-H661
Outline: as §1

SK-LU-1 = system: SK-LU-1
Outline: as §1

NCI-H1703 = system: NCI-H1703
Outline: as §1

EBC-1 = system: EBC-1
Outline: as §1

A549 = system: A549
Outline: as §1

NCI-H1944 = system: NCI-H1944
Outline: as §1

Nc1cccc2c1CN(C1CCC(=O)NC1=O)C2=O (centres undefined) [Lenalidomide] + CC(C)C[C@H](NC(=O)[C@H](Cc1ccccc1)NC(=O)c1cnccn1)B(O)O [Bortezomib] (partner 0.002 µM)
relative viability (PC-14; first compound 0.253 µM): 0.779 | relative viability (PC-14; first compound 0.8 µM): 0.802 | relative viability (PC-14; first compound 2.53 µM): 0.905 | relative viability (PC-14; first compound 8 µM): 0.854 | relative viability (IA-LM; first compound 0.253 µM): 0.946 | relative viability (IA-LM; first compound 0.8 µM): 0.753 | relative viability (IA-LM; first compound 2.53 µM): 0.884 | relative viability (IA-LM; first compound 8 µM): 0.764 | relative viability (NCI-H1299; first compound 0.253 µM): 1.03 | relative viability (NCI-H1299; first compound 0.8 µM): 1.01 | relative viability (NCI-H1299; first compound 2.53 µM): 1.06 | relative viability (NCI-H1299; first compound 8 µM): 1.06 | relative viability (Calu-6; first compound 0.253 µM): 1.04 | relative viability (Calu-6; first compound 0.8 µM): 1.01 | relative viability (Calu-6; first compound 2.53 µM): 0.997 | relative viability (Calu-6; first compound 8 µM): 1.06 | relative viability (NCI-H596; first compound 0.253 µM): 0.933 | relative viability (NCI-H596; first compound 0.8 µM): 0.733 | relative viability (NCI-H596; first compound 2.53 µM): 1.39 | relative viability (NCI-H596; first compound 8 µM): 0.883 | relative viability (NCI-H1666; first compound 0.253 µM): 0.816 | relative viability (NCI-H1666; first compound 0.8 µM): 0.544 | relative viability (NCI-H1666; first compound 2.53 µM): 0.813 | relative viability (NCI-H1666; first compound 8 µM): 0.762 | relative viability (NCI-H661; first compound 0.253 µM): 0.7 | relative viability (NCI-H661; first compound 0.8 µM): 0.75 | relative viability (NCI-H661; first compound 2.53 µM): 0.794 | relative viability (NCI-H661; first compound 8 µM): 0.755 | relative viability (SK-LU-1; first compound 0.253 µM): 1.31 | relative viability (SK-LU-1; first compound 0.8 µM): 1.38 | relative viability (SK-LU-1; first compound 2.53 µM): 1.25 | relative viability (SK-LU-1; first compound 8 µM): 0.862 | relative viability (NCI-H1703; first compound 0.253 µM): 0.231 | relative viability (NCI-H1703; first compound 0.8 µM): 0.399 | relative viability (NCI-H1703; first compound 2.53 µM): 0.328 | relative viability (NCI-H1703; first compound 8 µM): 0.47 | relative viability (EBC-1; first compound 0.253 µM): 0.653 | relative viability (EBC-1; first compound 0.8 µM): 0.589 | relative viability (EBC-1; first compound 2.53 µM): 0.684 | relative viability (EBC-1; first compound 8 µM): 0.564

CCNC(=O)c1noc(-c2cc(C(C)C)c(O)cc2O)c1-c1ccc(CN2CCOCC2)cc1 [Luminespib] + CC1(C)CCC(c2ccc(Cl)cc2)=C(CN2CCN(c3ccc(C(=O)NS(=O)(=O)c4ccc(N[C@H](CCN5CCOCC5)CSc5ccccc5)c(S(=O)(=O)C(F)(F)F)c4)cc3)CC2)C1 [Navitoclax] (partner 0.5 µM)
relative viability (PC-14; first compound 0.002 µM): 0.996 | relative viability (PC-14; first compound 0.006325 µM): 0.945 | relative viability (PC-14; first compound 0.02 µM): 1.17 | relative viability (PC-14; first compound 0.06325 µM): 0.0977 | relative viability (PC-14; first compound 0.2 µM): 0.128 | relative viability (IA-LM; first compound 0.002 µM): 0.752 | relative viability (IA-LM; first compound 0.006325 µM): 0.792 | relative viability (IA-LM; first compound 0.02 µM): 0.549 | relative viability (IA-LM; first compound 0.06325 µM): 0.061 | relative viability (IA-LM; first compound 0.2 µM): 0.058 | relative viability (A549; first compound 0.002 µM): 1.22 | relative viability (A549; first compound 0.006325 µM): 1.15 | relative viability (A549; first compound 0.02 µM): 1.11 | relative viability (A549; first compound 0.06325 µM): 0.0452 | relative viability (A549; first compound 0.2 µM): 0.0433 | relative viability (NCI-H1299; first compound 0.002 µM): 1.03 | relative viability (NCI-H1299; first compound 0.006325 µM): 1.01 | relative viability (NCI-H1299; first compound 0.02 µM): 1.07 | relative viability (NCI-H1299; first compound 0.06325 µM): 0.975 | relative viability (NCI-H1299; first compound 0.2 µM): 0.295 | relative viability (Calu-6; first compound 0.002 µM): 0.836 | relative viability (Calu-6; first compound 0.006325 µM): 0.772 | relative viability (Calu-6; first compound 0.02 µM): 1.08 | relative viability (Calu-6; first compound 0.06325 µM): 0.116 | relative viability (Calu-6; first compound 0.2 µM): 0.107 | relative viability (NCI-H596; first compound 0.002 µM): 0.954 | relative viability (NCI-H596; first compound 0.006325 µM): 0.886 | relative viability (NCI-H596; first compound 0.06325 µM): 0.936 | relative viability (NCI-H596; first compound 0.2 µM): 0.996 | relative viability (NCI-H1666; first compound 0.002 µM): 0.807 | relative viability (NCI-H1666; first compound 0.006325 µM): 0.97 | relative viability (NCI-H1666; first compound 0.02 µM): 1.29 | relative viability (NCI-H1666; first compound 0.06325 µM): 0.913 | relative viability (NCI-H1666; first compound 0.2 µM): 0.554 | relative viability (NCI-H1944; first compound 0.002 µM): 1.06 | relative viability (NCI-H1944; first compound 0.006325 µM): 0.99 | relative viability (NCI-H1944; first compound 0.02 µM): 0.708 | relative viability (NCI-H1944; first compound 0.06325 µM): 0.939 | relative viability (NCI-H1944; first compound 0.2 µM): 0.973 | relative viability (SK-LU-1; first compound 0.002 µM): 0.887 | relative viability (SK-LU-1; first compound 0.006325 µM): 0.478 | relative viability (SK-LU-1; first compound 0.02 µM): 0.505 | relative viability (SK-LU-1; first compound 0.06325 µM): 0.117 | relative viability (SK-LU-1; first compound 0.2 µM): 0.0911 | relative viability (NCI-H1703; first compound 0.002 µM): 1.34 | relative viability (NCI-H1703; first compound 0.006325 µM): 0.925 | relative viability (NCI-H1703; first compound 0.02 µM): 0.371 | relative viability (NCI-H1703; first compound 0.06325 µM): 0.147 | relative viability (NCI-H1703; first compound 0.2 µM): 0.138 | relative viability (EBC-1; first compound 0.002 µM): 0.489 | relative viability (EBC-1; first compound 0.006325 µM): 0.488 | relative viability (EBC-1; first compound 0.02 µM): 0.241 | relative viability (EBC-1; first compound 0.06325 µM): 0.142 | relative viability (EBC-1; first compound 0.2 µM): 0.133
